# Assay results as given in a melting point compilation (Tetko et al.; mined from patent text by program, amines drawn as free bases though some values may be those of a salt).
row,Structure (SMILES),melting point [°C]
1,COc1cc(C#N)ccc1-c1nc2cc3c(cc2[nH]1)NC(=O)C3(C)C,304 to 312
2,CCOc1cc2c(cc1O)C(=O)CC1C2CCC2(C)C(O)CCC12 (stereo not drawn),194 to 196
3,Cc1ccnc(C(=O)c2[nH]c3cc(Cl)ccc3c2NC(=O)[C@H](C)O)c1,206 to 207
4,CCCCCCCCCCCCCCCCCCNC(=O)OC(=O)CCCCCCCCCCC,83
5,CCCn1c(=O)c(C(=O)OCC)c(N2CCN(C(=O)c3cccs3)CC2)c2cccnc21,92 to 96
6,Oc1ccc2c(c1)C(c1ccc(OCCN3CCCCC3)cc1)c1c-2ccc2ccccc12 (stereo not drawn),180 to 181
7,CN(C)CCCCC(=O)NC(Cc1c[nH]c2ccccc12)C(=O)CCc1cc(C(F)(F)F)cc(C(F)(F)F)c1 (stereo not drawn),140
8,COCCCS(=O)(=O)NC(=O)CCc1cc(C(C)(C)C)nn1Cc1ccc(C(F)(F)F)cc1Cl,149 to 150
9,O=C(OCC1CC1)c1ncn2c1[C@@H]1CCCN1C(=O)c1cc(F)ccc1-2,140 to 142
10,CSc1ccc(-c2nn(Cc3ccccc3)c(=O)cc2-c2ccccc2)cc1,157 to 158
11,CSc1ccc(/C=C2/C(C)=C(CCCCN(O)C(N)=O)c3cc(F)ccc32)cc1,154 to 157
12,CC(C)(c1ccc(S(=O)(=O)N(CCO)CCO)cc1[N+](=O)[O-])[N+](=O)[O-],109 to 110
13,CC(=O)Nc1ccc(Sc2ccc(Cl)cc2)cc1,140 to 141
14,COc1cc2c(c(Cl)c1Cl)C(=O)C(C)(C)C2,142
15,CCOC(=O)C=Cc1c[nH]c2cnc(-n3cncn3)cc12,235 to 238
16,CNc1sc2c(c1C(=O)c1ccccc1)CCCC2,128 to 130
17,CCc1csc2c(C(=O)O)c(=O)c3cc(F)c(N4CCNCC4)cc3n12,247 to 251
18,NC(=O)Nc1nc(CC(=O)Nc2cccc(C(F)(F)F)c2)cs1,195 to 197
19,CCC(CO)(CO)CBr,78 to 80
20,C#CCN1C(Oc2ccc(C)cc2)=NS(=O)(=O)N=C1Oc1ccc(C)cc1,279 to 280
21,COc1ccc(C2(O)CCN(CC(O)c3ccc(OCc4ccccc4)cc3)CC2)cn1 (stereo not drawn),199
22,Oc1ccc2cc(CNCc3ccccc3)ccc2c1,120 to 122
23,CC(=O)SC(CC(=O)c1ccc(C(C)C)cc1)C(=O)O (stereo not drawn),84 to 86
24,O=C(O)CCC1CCCC2CCC(=O)NC12 (stereo not drawn),95 to 97
25,CC(=O)C(=C1NCCCS1)[N+](=O)[O-],110 to 113
26,CC(C)(C)c1ccc(OCCCCCN2CCN(c3nccs3)CC2)cc1,71 to 73

row,Structure (SMILES),melting point [°C]
1,COc1cccc2c1C(=O)NS2(=O)=O,224
2,CC1(C)OC(=O)Nc2ccc(-c3cccc(Br)c3)cc21,174 to 175
3,CS(=O)(=O)c1ccc(C2=C(Br)C(=O)C3(CCCCC3)O2)cc1,163 to 164
4,N#CCCN(Cc1ccccc1)CC(O)CO (stereo not drawn),132
5,CCNC(=O)c1c(Cl)cccc1OC(C)(C)C,126 to 127
6,O=C(O)c1cc(Oc2ncc(C(F)(F)F)cc2Cl)ccc1[N+](=O)[O-],131
7,CC(C)C(CCCCCCCC(=O)O)NCc1ccc(F)cc1 (stereo not drawn),78 to 82
8,CCc1nc2cnc3ccccc3c2s1,48 to 49
9,O=C(O)CCCc1cc2nc(C(F)(F)F)ccc2n1S(=O)(=O)c1ccc2c(c1)OCCO2,158
10,Nc1ccc2c(c1)CC(=O)c1ccccc1O2,116 to 117
11,COc1ccn2cc(-c3ccc(OC)c(OC)c3)nc2c1,142
12,O=C(O)c1nn(Cc2ccccc2)c2c1CCc1cc(OCc3cncnc3)ccc1-2,236 to 237
13,COc1ccc(S(=O)(=O)N(CC(C)C)CC(O)C(Cc2ccccc2)NC(=O)C(C)CS(C)(=O)=O)cc1OC (stereo not drawn),130 to 133
14,COc1ccc(C(=O)Nc2ccc(Cl)c(Cl)c2)cc1NS(C)(=O)=O,226 to 228
15,CC(C)c1c(Cl)nc(OCc2ccccc2)nc1OCc1ccccc1,77 to 78
16,Nc1ccncc1Nc1ccc2[nH]ccc2c1,83 to 90
17,O=C(Nc1ccc2oc(=O)[nH]c2c1)C(=O)N1CCC(Cc2ccccc2)CC1,187 to 190
18,COc1ccc(CNc2nc(C)nc(C)c2Cl)cc1OCc1ccccc1,111 to 117
19,O=C(c1ccccc1SSc1ccccc1C(=O)N1CCC(CO)C1)N1CCC(CO)C1 (stereo not drawn),169 to 171
20,CC(C)c1nc(N(C)S(C)(=O)=O)nc(-c2ccc(F)cc2)c1Br,122 to 125
21,O=C(O)c1ccc(CNCc2cc(Br)ccc2OCc2ccccc2)cc1,209
22,O=C(O)c1cn2c3c(c(N4CCCC4)c(F)cc3c1=O)CCN2Cc1ccccc1,174 to 180
23,COc1cc2c(cc1S(=O)(=O)Cl)CCN(C(C)=O)CC2,153 to 160
24,CCOCCc1c(-c2ccc(Cl)cc2)nc(N)n2ncnc12,183 to 185
25,CCCc1nc2ccccn2c(=O)c1-c1ccc(Cl)cc1,109 to 110
26,CCCCCN(Cc1ccc(-c2ccccc2S(=O)(=O)NC(=O)c2ccccc2Cl)cc1)C(=O)N1CCc2ccccc21,83 to 85

row,Structure (SMILES),melting point [°C]
1,Clc1ccc2c(c1)C(c1ccccc1Cl)=CCc1nnc(Br)n1-2,234
2,Cn1cc(-c2cc(-c3cnc(N)c(C(F)(F)F)c3)ccn2)n(-c2ccc(C(C)(C)C#N)cc2)c1=O,195
3,C=CCc1c(O)c(C)cc2c1C(C)(C)CC1(CC(C)(C)c3cc(O)c(C)cc3O1)O2 (stereo not drawn),102 to 104
4,COc1ccc2[nH]c(C)c(Cc3cc(=O)n(C4CCCCC4)[nH]3)c2c1,99 to 101
5,CCCO[C@H]1CC[C@H](c2cnc(-c3ccc(C#N)cc3)nc2)CC1,114
6,CC(C)c1noc(-c2ncn3c4cccc(Cl)c4c(=O)n(C)c23)n1,209
7,Cc1cccc2c1CCc1ccccc1C2(O)CCCN=Cc1ccccc1 (stereo not drawn),130 to 131
8,O=C(O)c1ccc(NC(=O)c2ccc(-c3ccccc3)cc2)cc1,> 320
9,Cc1c(NC(=O)c2ccc(C(C)(C)C)cc2)cccc1-c1cc(Br)c(=O)n(C)c1,149 to 151
10,CCn1cc(CN(C(=O)C2CCCc3cc(OCCO)ccc32)c2ccc(C(C)C)cc2)cn1 (stereo not drawn),137
11,N#Cc1c(=O)[nH]c2cc(Cl)c(Cl)cc2[n+]1[O-],294 to 296
12,COC(=O)c1ccc(NC(=O)c2cc(C(C)C)c(C(C)C)o2)s1,175 to 177
13,CC[C@H]1CNCC[C@H]1CCc1c[nH]c2ccccc12,150
14,O=C(N[C@@H]1CCc2ccccc21)c1nn(-c2ccc(F)cc2F)c2c1C1CCC2C1 (stereo partly drawn),158 to 161
15,COc1ccc2c(c1)C(O)=C(C(=O)Nc1cncc(Cl)n1)N(C)S2(=O)=O,289 to 291
16,CCc1cc(=O)c(C(=O)OC)c(C)[nH]1,176 to 180
17,O=C(O)c1cc(Br)ccc1OCC(F)(F)F,126 to 128
18,Cc1nc2cccc3nc(SCCCCNS(=O)(=O)C(F)(F)F)c1n23,129 to 131
19,O=C1C2=CSCCN2C(=O)N1c1cccc(Cl)c1F,118 to 120
20,CCOC(=O)C=C(C)Nc1ccc(F)c(OCc2ccccc2)c1,79 to 80
21,CC(C)(C)OC(=O)CC(=O)CO[C@H]1NC(=O)[C@@H]1NC(=O)c1ccccc1,142
22,O=c1[nH]c2c(n3ccnc13)C(NS(=O)(=O)c1ccccc1)c1ccccc1-2 (stereo not drawn),216
23,O=c1ccoc2c(C/C=C/c3ccccc3)c(OCc3ccccc3)ccc12,131 to 133
24,O=C1C=C(COCc2ccccc2)N=CC1OCc1ccccc1 (stereo not drawn),103 to 131
25,Nc1cc(OCCC2CCCCC2)nc(N)n1,142
26,O=C(O)CCC/C=C\[C@@H]1C[C@@H](NS(=O)(=O)c2ccc(Cl)cc2)CN1Cc1ccccc1,87 to 91

row,Structure (SMILES),melting point [°C]
1,CC(N1CCN(c2ncn(Cc3ccc(C(F)(F)F)cc3)n2)CC1)C(O)(Cn1cncn1)c1ccc(F)cc1F (stereo not drawn),69 to 72
2,Cc1cc(-c2[nH]c3ccc(O)cc3c2C)cc(C)c1O,174 to 176
3,CCOC(=O)CCn1c(CC(=O)OCC)nc2c(N3CCCCC3)cccc21,82 to 85
4,CCN(CC)S(=O)(=O)c1ccccc1S(N)(=O)=O,156 to 159
5,CN(C)C(=O)C1Cc2cc(Cl)ccc2NC1=O (stereo not drawn),302 to 305
6,CCCN(CCC)c1nc2c(c(-c3c(C)cc(C)cc3C)cn2C)c(=O)n1C,100 to 102
7,COCc1cc(Cl)ncn1,34 to 36
8,OCCCC(O)c1ccccc1 (stereo not drawn),63 to 68
9,COc1ccc(C2CNCCc3c2cc(OC)c(OC)c3Cl)cc1 (stereo not drawn),139 to 142
10,CCCC1=C(C(=O)OCC)C(c2cccnc2)c2c[nH]nc2N1 (stereo not drawn),251
11,CCN1C(C(=O)Nc2cncc(Cl)n2)=C(O)c2ccccc2S1(=O)=O,233 to 235
12,COc1cc2c(Nc3ccc(Cl)cc3F)ncnc2cc1OCCCn1ccccc1=O,216 to 218
13,CC1COCc2nc3cnc4cc(C=CS(C)(=O)=O)ccc4c3n21 (stereo not drawn),249 to 250
14,CS(=O)(=O)c1ccc(-c2cnn(-c3ccc(F)cc3)c(=O)c2S(=O)(=O)c2ccccc2)cc1,203 to 204
15,Fc1ccc2nc(S)oc2c1F,209 to 210
16,CCCCC[C@H](CC(=O)Nc1c(F)cc(F)cc1F)c1cccc2c1OCO2,88 to 89
17,O=C1CCCN1c1cccc(-n2cnc3cc(Br)cnc32)c1,194 to 195
18,COC(=O)c1csc2c(=O)cc(C(F)(F)F)oc12,148 to 158
19,O=C(O)c1ccnc2[nH]c(CCc3ccccc3)cc12,> 300
20,CNC(=S)C1(c2cccnc2)CCCS1 (stereo not drawn),133
21,CC1(C)CCC(C)(C)c2cc(C#Cc3ccc(C(=O)O)cc3)ccc21,252 to 256
22,CC1(C)COC(c2cc(I)cc(C(F)(F)F)c2)=N1,73 to 74.5
23,N=C(Nc1ccc(C(=O)O)cc1)Nc1nc(-c2ccccc2)cs1,245 to 247
24,Cn1nnc(-c2ccc(C#CC3(O)CN4CCC3CC4)cc2)n1 (stereo not drawn),228 to 230
25,CC(=O)c1ccc(NS(C)(=O)=O)c(Oc2ccc(F)cc2F)c1,117 to 118
